Reference: ChEMBL document CHEMBL1141099, “Discovery of N-(2,6-dimethylphenyl)-substituted semicarbazones as anticonvulsants: hybrid pharmacophore-based design” (2005)

Tests used:
Mus musculus [1] = assay: Minimum dose required for anticonvulsant activity when given i.p., at 2 hr in mice upon subcutaneous strychnine seizure; format: functional
Rattus norvegicus [2] = organism: Rattus norvegicus; assay: Protective index between effective dose and toxic dose in rat; format: functional
Mus musculus [3] = assay: Minimum dose required for anticonvulsant activity when given i.p., at 4 hr in mice upon maximal electroshock seizure; format: functional
Rattus norvegicus [4] = organism: Rattus norvegicus; assay: Ex vitro percentage inhibition activity against GABA-T enzyme at a concentration of 5 uM after 6 h; format: functional
Rattus norvegicus [5] = assay: Seizure score before administration in rat 1 at dose 100 mg/Kg when given i.p., upon preliminary hippocampal-kindling screen; format: functional, Hippocampus
Rattus norvegicus [6] = assay: After discharge duration time when before administered in rat 1 at dose 100 mg/Kg when given i.p., upon preliminary hippocampal-kindling screen; Prodrug time 26-42 s; format: functional, Hippocampus
Mus musculus [7] = assay: Post treatment activity score for CNS study using a actophotometer at a dose of 100 mg/Kg after 1 hr when given i.p., in mice (No. of animals 6); Control (24h before) 202
Rattus norvegicus [8] = organism: Rattus norvegicus; assay: Ex vitro percentage inhibition activity against GABA-T enzyme at a concentration of 5 uM after 4.5 h; format: functional
[9] = target: 4-aminobutyrate aminotransferase, mitochondrial (Rattus norvegicus) (UniProt P50554); assay: In vitro percentage inhibition activity against GABA-T enzyme at a concentration of 0.625 uM after 6 h
Sequence of 4-aminobutyrate aminotransferase, mitochondrial (Rattus norvegicus) (P50554 28-500 limits assumed): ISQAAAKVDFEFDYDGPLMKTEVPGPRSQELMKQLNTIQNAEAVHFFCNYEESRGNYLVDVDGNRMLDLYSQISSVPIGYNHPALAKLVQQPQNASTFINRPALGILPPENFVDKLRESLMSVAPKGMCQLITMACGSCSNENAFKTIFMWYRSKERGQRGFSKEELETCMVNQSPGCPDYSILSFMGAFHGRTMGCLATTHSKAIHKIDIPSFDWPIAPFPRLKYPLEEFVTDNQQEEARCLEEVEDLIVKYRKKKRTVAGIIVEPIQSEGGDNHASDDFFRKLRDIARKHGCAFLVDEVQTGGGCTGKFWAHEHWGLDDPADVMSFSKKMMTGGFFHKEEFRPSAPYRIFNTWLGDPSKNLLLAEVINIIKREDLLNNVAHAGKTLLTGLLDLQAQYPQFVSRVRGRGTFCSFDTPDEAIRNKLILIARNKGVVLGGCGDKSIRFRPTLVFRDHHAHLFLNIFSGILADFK

Mus musculus [10] = assay: Minimum dose required for anticonvulsant activity when given i.p., at 0.5 hr in mice upon neurotoxicity seizure using rotarod test; format: functional
Rattus norvegicus [11] = assay: After discharge duration time when after administered in rat 1 at dose 100 mg/Kg when given i.p., upon preliminary hippocampal-kindling screen; format: functional, Hippocampus
Mus musculus [12] = assay: Minimum dose required for anticonvulsant activity when given i.p., at 0.5 hr in mice upon subcutaneous pentylenetetrazole seizure; format: functional
Rattus norvegicus [13] = assay: Number of rats protected at a dose of 30 mg/Kg when given oral at 4 hr upon maximal electroshock seizure; Total number of rats = 4; format: functional
Rattus norvegicus [14] = assay: Number of rats protected at a dose of 30 mg/Kg when given oral at 0.5 hr upon maximal electroshock seizure; Total number of rats = 4; format: functional
Rattus norvegicus [15] = assay: Number of rats protected at a dose of 30 mg/Kg when given oral at 2 hr upon maximal electroshock seizure; Total number of rats = 4; format: functional
Mus musculus [16] = assay: Minimum dose required for anticonvulsant activity when given i.p., at 0.5 hr in mice upon maximal electroshock seizure; format: functional
Rattus norvegicus [17] = assay: Effective dose required for anticonvulsant activity when given i.p., at 1 hr in rat upon maximal electroshock seizure; format: functional; conditions: ip
Mus musculus [18] = assay: Minimum dose required for anticonvulsant activity when given i.p., at 0.5 hr in mice upon subcutaneous strychnine seizure; format: functional
Mus musculus [19] = assay: Post treatment activity score for CNS study using a actophotometer at a dose of 100 mg/Kg after 0.5 hr when given i.p., in mice (No. of animals 6); Control (24h before) 202
Rattus norvegicus [20] = assay: Toxic dose observed for anticonvulsant activity when given i.p., at 1 h in rat upon neurotoxicity seizure; format: functional; conditions: ip
Rattus norvegicus [21] = assay: After discharge duration time when after administered in rat 2 at dose 100 mg/Kg when given i.p., upon preliminary hippocampal-kindling screen; format: functional, Hippocampus
[22] = target: 4-aminobutyrate aminotransferase, mitochondrial (Rattus norvegicus) (UniProt P50554); assay: In vitro percentage inhibition activity against GABA-T enzyme at a concentration of 0.625 uM after 3 h
[23] = target: 4-aminobutyrate aminotransferase, mitochondrial (Rattus norvegicus) (UniProt P50554); assay: In vitro percentage inhibition activity against GABA-T enzyme at a concentration of 0.625 uM after 4.5 h
Rattus norvegicus [24] = assay: Number of rats protected at a dose of 30 mg/Kg when given oral at 0.25 hr upon maximal electroshock seizure; Total number of rats = 4; format: functional
Rattus norvegicus [25] = assay: Effect on GABA level in rat whole brain concentration after 2 hr post-treatment at a dose of 100 mg/Kg when given i.p.; Control 48.4; format: functional
Rattus norvegicus [26] = organism: Rattus norvegicus; assay: Ex vitro percentage inhibition activity against GABA-T enzyme at a concentration of 5 uM after 3 h; format: functional
Rattus norvegicus [27] = assay: Seizure score before administration in rat 2 at dose 100 mg/Kg when given i.p., upon preliminary hippocampal-kindling screen; […]; format: functional, Hippocampus
Rattus norvegicus [28] = assay: Seizure score after administration in rat 2 at dose 100 mg/Kg when given i.p., upon preliminary hippocampal-kindling screen; format: functional, Hippocampus
Rattus norvegicus [29] = assay: Number of rats protected at a dose of 30 mg/Kg when given oral at 1 hr upon maximal electroshock seizure; Total number of rats = 4; format: functional
Mus musculus [30] = assay: Post treatment immobility time for CNS study using Porsolt's swimpool test at a dose of 100 mg/Kg after 1 hr when given i.p., in mice (No. of animals 6); Control (24h before) 173
Rattus norvegicus [31] = assay: Effect on GABA level in rat whole brain concentration after 7 days post-treatment at a dose of 30 mg/Kg when given orally; Control 50.5; format: functional
Rattus norvegicus [32] = assay: After discharge duration time when before administered in rat 2 at dose 100 mg/Kg when given i.p., upon preliminary hippocampal-kindling screen; Prodrug time 11-39 s; format: functional, Hippocampus
Rattus norvegicus [33] = assay: Seizure score after administration in rat 1 at dose 100 mg/Kg when given i.p., upon preliminary hippocampal-kindling screen; format: functional, Hippocampus
Mus musculus [34] = assay: Mean sleeping time evaluated for CNS study using the pentobarbital-induced narcosis model at a dose of 100 mg/Kg when given i.p., in mice (No. of animals 6)
[35] = target: 4-aminobutyrate aminotransferase, mitochondrial (Rattus norvegicus) (UniProt P50554); assay: In vitro percentage inhibition activity against GABA-T enzyme at a concentration of 5 uM after 4.5 h
Mus musculus [36] = assay: Post treatment activity score for CNS study using a actophotometer at a dose of 100 mg/Kg after 0.5 hr when given i.p., in mice (No. of animals 6); Control (24h before) 238
Rattus norvegicus [37] = organism: Rattus norvegicus; assay: Ex vitro percentage inhibition activity against GABA-T enzyme at a concentration of 2.5 uM after 3 h; format: functional
Rattus norvegicus [38] = organism: Rattus norvegicus; assay: Ex vitro percentage inhibition activity against GABA-T enzyme at a concentration of 2.5 uM after 4.5 h; format: functional
Mus musculus [39] = assay: Post treatment immobility time for CNS study using Porsolt's swimpool test at a dose of 100 mg/Kg after 1 hr when given i.p., in mice (No. of animals 6); Control (24h before) 143
Mus musculus [40] = assay: Post treatment activity score for CNS study using a actophotometer at a dose of 100 mg/Kg after 1 h when given i.p., in mice (No. of animals 6); Control (24h before) 238
Rattus norvegicus [41] = organism: Rattus norvegicus; assay: Ex vitro percentage inhibition activity against GABA-T enzyme at a concentration of 2.5 uM after 6 h; format: functional
[42] = target: 4-aminobutyrate aminotransferase, mitochondrial (Rattus norvegicus) (UniProt P50554); assay: In vitro percentage inhibition activity against GABA-T enzyme at a concentration of 5 uM after 6 h
[43] = target: 4-aminobutyrate aminotransferase, mitochondrial (Rattus norvegicus) (UniProt P50554); assay: In vitro percentage inhibition activity against GABA-T enzyme at a concentration of 5 uM after 3 h

| Compound | STY seizure (Mus musculus [1]) [mg/kg] | PI (Rattus norvegicus [2]) | MES (Mus musculus [3]) [mg/kg] | PTZ seizure (Mus musculus [12]) [mg/kg] | Activity (Rattus norvegicus [13]) | Activity (Rattus norvegicus [14]) | Activity (Rattus norvegicus [15]) | MES (Mus musculus [16]) [mg/kg] | ED50 (Rattus norvegicus [17]) [mg/kg] | STY seizure (Mus musculus [18]) [mg/kg] | TD50 (Rattus norvegicus [20]) [mg/kg] | Activity (Rattus norvegicus [24]) | Activity (Rattus norvegicus [25]) | Activity (Rattus norvegicus [29]) | Activity (Rattus norvegicus [31]) | Time (Mus musculus [34]) [min] | other results |
| --- | --- | --- | --- | --- | --- | --- | --- | --- | --- | --- | --- | --- | --- | --- | --- | --- | --- |
| Cc1cccc(C)c1NC(=O)N/N=C/c1cccc([N+](=O)[O-])c1 | 100 | >4 | 300 | 300 | 3 | 1 | 1 | 100 | 29.7 | 30 | > 120 | 1 | 79.8 ug/100mg of tissue | 3 | 87.9 ug/100mg of tissue | 147 | Inhibition (Rattus norvegicus [4]): 0%; Score (Rattus norvegicus [5]): 5; ADD (Rattus norvegicus [6]): 42 s; Activity (Mus musculus [7]): 131; Inhibition (Rattus norvegicus [8]): 0%; inhibition [9]: 0%; NT (Mus musculus [10]): 300 mg/kg; ADD (Rattus norvegicus [11]): 52 s; Activity (Mus musculus [19]): 129; ADD (Rattus norvegicus [21]): 59 s; inhibition [22]: 88%; inhibition [23]: 0%; Inhibition (Rattus norvegicus [26]): 0%; Score (Rattus norvegicus [27]): 4; Score (Rattus norvegicus [28]): 5; Activity (Mus musculus [30]): 231; ADD (Rattus norvegicus [32]): 39 s; Score (Rattus norvegicus [33]): 1 |
| COc1cc(/C=N/NC(=O)Nc2c(C)cccc2C)ccc1O | 100 | >4.4 | 300 | 300 | 4 | 3 | 3 | 100 | 26.2 | 30 | > 117 | 3 | 91.2 ug/100mg of tissue | 4 | 106 ug/100mg of tissue | 68 | inhibition [35]: 56%; Activity (Mus musculus [36]): 157; Inhibition (Rattus norvegicus [37]): 0%; Inhibition (Rattus norvegicus [38]): 56%; Activity (Mus musculus [39]): 207; Activity (Mus musculus [40]): 130; Inhibition (Rattus norvegicus [41]): 12%; inhibition [42]: 23%; inhibition [43]: 0% |
